Data as given in patent US12398151B2, “Sumo inhibitor compounds and uses thereof” (SUVALENT THERAPEUTICS, INC., priority 2019, dated 2025).
Like-named read-outs stand apart in the source and are kept apart here.

What was measured:
Atg7 = target: T1, Atg7 (Homo sapiens, UniProt O95352); assay: Atg7 activating enzyme (E1) inhibition; assay type: biochemical; conditions: 25 uM compound, 60 min preincubation; for inhibition at 25 µM: read-out: Atg7 percent inhibition of adduct formation
T1 sequence (O95352 1-703): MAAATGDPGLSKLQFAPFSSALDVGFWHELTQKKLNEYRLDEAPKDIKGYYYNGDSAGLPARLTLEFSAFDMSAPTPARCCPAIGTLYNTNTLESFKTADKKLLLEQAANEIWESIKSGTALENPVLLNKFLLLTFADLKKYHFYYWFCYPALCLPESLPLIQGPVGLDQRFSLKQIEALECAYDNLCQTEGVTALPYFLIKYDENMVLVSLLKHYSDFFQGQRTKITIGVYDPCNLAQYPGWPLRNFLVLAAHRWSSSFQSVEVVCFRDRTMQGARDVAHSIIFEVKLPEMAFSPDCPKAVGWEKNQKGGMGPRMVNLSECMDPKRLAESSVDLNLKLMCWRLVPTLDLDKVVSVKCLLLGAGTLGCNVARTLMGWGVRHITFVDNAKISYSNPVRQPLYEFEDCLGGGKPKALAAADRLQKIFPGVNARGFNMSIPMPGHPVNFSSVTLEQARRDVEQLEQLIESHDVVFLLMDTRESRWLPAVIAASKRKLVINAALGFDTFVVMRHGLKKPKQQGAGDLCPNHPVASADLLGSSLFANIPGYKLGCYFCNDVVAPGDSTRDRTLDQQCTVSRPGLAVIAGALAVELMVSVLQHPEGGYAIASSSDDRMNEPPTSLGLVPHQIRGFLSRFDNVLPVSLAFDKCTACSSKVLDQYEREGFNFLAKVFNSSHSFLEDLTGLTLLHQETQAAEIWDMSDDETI
Protocol: (§1) Compounds are evaluated for their inhibitory effect on activating enzymes (E1) of ubiquitin, SUMO, Nedd8, Urm1, ISG15 or Atg7 using previously reported methods and protocols. One example is in: Allosteric inhibition of ubiquitin-like modifications by a class of inhibitor of SUMO-activating enzyme. Cell Chemical Biology, 26, 1-11, 2019. PMID: 28051857.
(§2) Compounds are tested in the following manner. The compound and SUMO E1 are incubated for a predetermined amount of time. UBC9, SUMO1, and ATP are added to the E1-compound mixture and incubated at 37° C. The reaction is quenched with Laemmli Buffer. The UBC9-SUMO1 conjugation is analyzed via SDS gel electrophoresis. The percent inhibition is measured by the intensity of the UBC9-SUMO1 band compared to the no compound control. Activities are listed as compound concentration (uM), preincubation time of E1 with compound (min), and percent inhibition of adduct formation (%). […]

SUMO E1 = target: T2, SUMO E1 (Homo sapiens, UniProt Q9UBT2); assay: SUMO E1 inhibition: UBC9-SUMO1 conjugation by SDS gel electrophoresis; assay type: biochemical; conditions: for inhibition at 3 µM: 3 uM compound; for inhibition at 27 µM: 27 uM compound; for inhibition at 1 µM: 1 uM compound; for inhibition at 9 µM: 9 uM compound
T2 sequence (Q9UBT2 1-640): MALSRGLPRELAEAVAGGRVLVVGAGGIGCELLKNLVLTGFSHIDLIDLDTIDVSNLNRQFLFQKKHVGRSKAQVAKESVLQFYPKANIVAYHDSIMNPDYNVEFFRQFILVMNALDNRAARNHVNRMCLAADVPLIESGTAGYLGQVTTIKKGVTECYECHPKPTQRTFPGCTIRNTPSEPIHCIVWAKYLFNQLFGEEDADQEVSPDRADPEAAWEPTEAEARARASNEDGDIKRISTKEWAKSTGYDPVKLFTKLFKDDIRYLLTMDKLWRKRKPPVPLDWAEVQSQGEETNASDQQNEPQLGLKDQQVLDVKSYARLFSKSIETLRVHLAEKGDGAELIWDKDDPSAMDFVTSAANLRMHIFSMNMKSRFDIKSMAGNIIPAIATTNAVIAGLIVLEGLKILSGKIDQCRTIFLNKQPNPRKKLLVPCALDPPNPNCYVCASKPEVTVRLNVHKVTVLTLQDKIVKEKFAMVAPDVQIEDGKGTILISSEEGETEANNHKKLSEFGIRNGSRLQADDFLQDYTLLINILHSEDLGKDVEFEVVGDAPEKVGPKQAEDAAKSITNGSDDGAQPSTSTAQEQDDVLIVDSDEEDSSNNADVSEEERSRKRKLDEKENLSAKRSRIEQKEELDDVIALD
T2 sequence (Q9UBE0 1-346 partner): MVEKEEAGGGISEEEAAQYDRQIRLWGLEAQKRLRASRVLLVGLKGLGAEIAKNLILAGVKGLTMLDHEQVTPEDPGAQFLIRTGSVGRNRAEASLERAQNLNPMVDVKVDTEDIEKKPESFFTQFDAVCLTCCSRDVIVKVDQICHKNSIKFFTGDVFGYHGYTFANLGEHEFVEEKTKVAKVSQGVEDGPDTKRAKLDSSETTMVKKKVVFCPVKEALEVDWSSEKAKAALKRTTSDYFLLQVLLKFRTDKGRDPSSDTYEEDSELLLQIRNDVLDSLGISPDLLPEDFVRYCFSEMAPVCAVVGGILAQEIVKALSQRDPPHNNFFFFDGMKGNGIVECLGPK
Protocol: as §1, §2

[1] = 30 min preincubation, read-out: SUMO E1 percent inhibition of adduct formation
[2] = 25 uM compound, 60 min preincubation, read-out: SUMO E1 percent inhibition of adduct formation
[3] = 25 uM compound, 30 min preincubation, read-out: SUMO E1 percent inhibition of adduct formation

Row | SMILES | inhibition at 25 µM (Atg7) | inhibition at 25 µM (SUMO E1; [2]) | further results
1 | C=CC(=O)N[C@H]1Cc2sccc2[C@@H](c2ccccc2Cl)C1 [Compound 130] | < 1% |  | inhibition at 3 µM (SUMO E1; [1]): < 1%
2 | C=CC(=O)N1Cc2ccc(Br)cc2[C@@H](c2ccccc2C)C1 [Compound 58] | < 1% | 95% | 
3 | C=CC(=O)N1Cc2sc(Cl)cc2[C@@H](c2ccccc2C)[C@H]1C [Compound 112] | < 1% |  | inhibition at 27 µM (SUMO E1; [1]): 95%
4 | C=CC(=O)N1Cc2ccsc2[C@@H](c2ccccc2)C1 [Compound 116] | < 1% |  | inhibition at 27 µM (SUMO E1; [1]): < 1%
5 | C=CC(=O)N1Cc2sc(CCC)cc2[C@@H](c2ccccc2C)C1 [Compound 110] | 80% |  | inhibition at 27 µM (SUMO E1; [1]): 30%
6 | C=CC(=O)N1Cc2sc(CC)cc2[C@@H](c2ccccc2)C1 [Compound 82] | < 1% |  | inhibition at 10 µM (SUMO E1; 10 uM compound, 30 min preincubation, read-out: SUMO E1 percent inhibition of adduct formation): 10%
7 | C=CC(=O)N1CCc2cc(Br)ccc2C1 [Compound 3] | < 1% | 70% | 
8 | C=CC(=O)N1Cc2sc(-c3ccccc3)cc2[C@@H](c2ccccc2)C1 [Compound 103] | < 1% |  | inhibition at 27 µM (SUMO E1; [1]): < 1%
9 | C=CC(=O)N1Cc2ccc(Br)cc2[C@@H](c2ccc(Cl)cc2)C1 [Compound 66] |  |  | Atg7 percent inhibition of adduct formation (Atg7): 25 uM 60 min <1%; SUMO E1 percent inhibition of adduct formation (SUMO E1; 25 uM compound, 60 min preincubation, 25 µM): 25 uM 60 min <1%
10 | C=CC(=O)N1Cc2sc(Cl)cc2[C@@H](c2ccccc2C2CC2)C1 [Compound 135] | < 1% |  | inhibition at 27 µM (SUMO E1; [1]): 95%
11 | C=CC(=O)N1Cc2ccc(C(C)C)cc2[C@@H](c2ccccc2)C1 [Compound 39] | < 1% | < 1% | 
12 | C=CC(=O)N1Cc2cc(OCc3ccccc3)ccc2[C@@H](c2ccccc2)C1 [Compound 49] | < 1% | < 1% | 
13 | C=CC(=O)N1Cc2cc(Cl)sc2[C@@H](c2ccccc2C)C1 [Compound 127] | < 1% |  | inhibition at 27 µM (SUMO E1; 20 min preincubation, read-out: SUMO E1 percent inhibition of adduct formation): 95%
14 | C=CC(=O)N1Cc2cc(Cl)ccc2[C@@H](c2ccncc2)C1 [Compound 92] | < 1% |  | inhibition at 20 µM (SUMO E1; 20 uM compound, 60 min preincubation, read-out: SUMO E1 percent inhibition of adduct formation): 10%
15 | Cc1ccccc1[C@H]1CN(C(=O)[C@@H]2CO2)Cc2sc(Cl)cc21 [Compound 105] | < 1% |  | inhibition at 27 µM (SUMO E1; [1]): < 1%
16 | C=CC(=O)N1Cc2sc(Cl)cc2[C@@H](c2ccccc2Br)C1 [Compound 113] | < 1% |  | inhibition at 1 µM (SUMO E1; [1]): 95%
17 | C=CC(=O)N1CCc2cc(Oc3ccccc3)ccc2C1 [Compound 24] | < 1% | 50% | 
18 | C=CC(=O)N1Cc2ccc(Br)cc2[C@@H](c2ccccc2)C1 [Compound 29] | < 1% | 90% | 
19 | C=CC(=O)N1Cc2cc(Cl)ccc2[C@@H](c2ccccn2)C1 [Compound 80] | < 1% |  | inhibition at 25 µM (SUMO E1; [3]): 50%
20 | C=CC(=O)N1CCc2ccccc2[C@@H](c2ccccc2)[C@H]1C [Compound 140] | < 1% |  | inhibition at 27 µM (SUMO E1; [1]): < 1%
21 | Cc1ccccc1[C@H]1CN(C(=O)/C=C/c2ccccn2)Cc2sc(Cl)cc21 [Compound 119] | < 1% |  | inhibition at 27 µM (SUMO E1; [1]): < 1%

Row | SMILES | inhibition at 25 µM (Atg7) | inhibition at 25 µM (SUMO E1; [2]) | further results
22 | Cc1ccccc1[C@H]1CN(C(=O)/C=C/C(F)(F)c2ccccn2)Cc2sc(Cl)cc21 [Compound 143] | < 1% |  | inhibition at 27 µM (SUMO E1; [1]): < 1%
23 | C=CC(=O)N1Cc2ccc(NC(=O)c3cccnc3)cc2C1 [Compound 16] | < 1% | 20% | 
24 | C=CC(=O)N1CCc2cc(Nc3ccccc3)ccc2C1 [Compound 8] | < 1% | < 1% | 
25 | C=CC(=O)N1Cc2sc(Cl)cc2[C@@H](c2ccccc2OCCCN(C)C)C1 [Compound 152] | < 1% |  | inhibition at 6 µM (SUMO E1; 6 uM compound, 15 min preincubation, read-out: SUMO E1 percent inhibition of adduct formation): < 1%
26 | C=CC(=O)N1CCc2ccccc2[C@@H]1c1ccccc1 (stereo in doubt) [Compound 10] | < 1% | < 1% | 
27 | C=CC(=O)N1Cc2ccc(N)cc2C1 [Compound 14] | < 1% | < 1% | 
28 | C=CC(=O)N1Cc2ccc(Br)cc2[C@@H](c2c(Cl)cccc2Cl)C1 [Compound 56] | < 1% | < 1% | 
29 | O=C(/C=C/C(F)(F)F)N1Cc2sc(Cl)cc2[C@@H](c2ccccc2F)C1 [Compound 120] | < 1% |  | inhibition at 1 µM (SUMO E1; [1]): 100%
30 | C=CC(=O)N1CCc2sc(Cl)cc2[C@@H](c2ccccc2)C1 [Compound 142] | < 1% |  | inhibition at 9 µM (SUMO E1; [1]): 80%
31 | C=CC(=O)N1CCc2cccc(Br)c2C1 [Compound 21] | < 1% | < 1% | 
32 | C=CC(=O)N1CC[C@H](c2ccccc2)c2cc(Cl)sc2C1 [Compound 137] | < 1% |  | inhibition at 27 µM (SUMO E1; [1]): < 1%
33 | C=C(F)C(=O)N1Cc2sc(Cl)cc2[C@@H](c2ccccc2C)C1 [Compound 104] | < 1% |  | inhibition at 25 µM (SUMO E1; [3]): < 1%
34 | C=CC(=O)N1Cc2ccccc2[C@@](C)(c2ccccc2)C1 [Compound 59] | < 1% | 40% | 
35 | C=CC(=O)N1Cc2cc(Cl)ccc2[C@@H](c2cccnc2)C1 [Compound 87] | < 1% |  | inhibition at 9 µM (SUMO E1; [1]): < 1%
36 | O=C(/C=C/C(F)(F)F)N1Cc2sc(Cl)cc2[C@@H](c2ccccc2CC2CCOCC2)C1 [Compound 141] | < 1% |  | inhibition at 1 µM (SUMO E1; [1]): 50%
37 | C=CC(=O)N1Cc2ccc(CCO)cc2[C@@H](c2ccccc2)C1 [Compound 40] | < 1% | < 1% | 
38 | C=CC(=O)N1Cc2cc(Br)cnc2[C@@H](c2ccccc2)C1 [Compound 88] | < 1% |  | inhibition at 9 µM (SUMO E1; [1]): < 1%
39 | C=CC(=O)N1CCc2ccccc2[C@@H](c2ccccc2)C1 [Compound 139] | < 1% |  | inhibition at 27 µM (SUMO E1; [1]): < 1%
40 | C=CC(=O)N1Cc2ccc(Cl)c(Cl)c2[C@@H](c2ccccc2)C1 [Compound 101] | < 1% |  | inhibition at 3 µM (SUMO E1; 15 min preincubation, read-out: SUMO E1 percent inhibition of adduct formation): 30%
41 | Cc1cc2c(s1)CN(C(=O)/C=C/c1ccccc1)C[C@@H]2c1ccccc1 [Compound 91] | < 1% |  | inhibition at 9 µM (SUMO E1; [1]): < 1%
